Reference: PMC4785407, “Reduction Impairs the Antibacterial Activity but Benefits the LPS Neutralization Ability of Human Enteric Defensin 5” (Scientific Reports, 2016)
“Also recorded” adds a separate entry of the source. Like-named read-outs stand apart in the source and are kept apart here. Bridge positions count the residues as written; N and C are the ends. Peptide text beside a SMILES is read from it.

Experiments:
[1] = Circular dichroism (CD) spectroscopy; assay type: physicochemical; conditions: 27 °C; for CD secondary structure in the presence of LPS: 100 μg/mL peptide, 100 μg/mL LPS; for CD secondary structure in SDS micelles: 100 μg/mL, 20 mM SDS
Experimental: The conformational properties of the peptides were analyzed using an Applied Photophysics Chirascan instrument at 27 °C. A cell with a 1-mm path length was utilized. The CD spectra were obtained from 190–280 nm at 1 nm intervals. The time-per-point was 0.5 s, and the scanning time was approximately 73 s. Peptides (100 μg/mL, 250 μL) prepared in sterile water were examined in the presence of 20 mM sodium dodecyl sulfate (SDS) and 100 μg/mL LPS. Before scanning, peptides were incubated with SDS and LPS at room temperature for 1 h. The data obtained from three independent scans were averaged and smoothed by Pro-Data Chirascan software (version 4.1).

[2] = system: interaction between LPS and LBP (mouse LBP); assay: LPS-binding protein (LBP) block assay; assay type: biochemical; conditions: for effect on the interaction between LPS and LBP: 50 μg/mL peptide, mouse LBP 60 ng/mL, biotinylated LPS 50 ng/mL
Experimental: The effects of peptides on the interaction between LPS and low concentrations of LBP were determined as previously described. Briefly, the plates of a LBP ELISA kit (Boster EK1274) were blocked by the incubation of 1% BSA prepared in 10 mM sodium phosphate buffer (pH 7.4) at 37 °C for 1 h, which were subsequently washed with 0.1% Tween-20. Aliquots of 100 μL of mouse LBP (Sigma SRP6034, 60 ng/mL) were added and incubated at 37 °C for 1.5 h. Peptides were prepared in sterile water, with concentrations of 12.5, 25, and 50 μg/mL, respectively. Biotinylated LPS (50 ng/mL) was added in the absence or presence of peptides (pre-incubated at 37 °C for 30 min). Polymyxin B (200 ng/mL) was used as a positive control. The binding of LPS to LBP was determined using a chromogenic reaction between HRP-conjugated streptavidin (Boster BA1088) and TMB (Sigma 860336). Data were processed by subtracting the absorbance in the absence of LPS. Statistical significance was determined by the Student−Newman−Keuls multiple comparisons test.
Figure 5. The efficiencies of peptides in blocking the interaction between LPS and LBP. A LBP ELISA plate was blocked by 1% BSA and subsequently washed with 0.1% Tween-20. Aliquots of 100 μL of the mouse LBP (60 ng/mL) was added and incubated at 37°C for 1.5 h. Peptides were prepared in sterile water, with concentrations of 12.5, 25, and 50 μg/mL, respectively. Biotinylated LPS (50 ng/mL) was then added in the absence or presence of peptides (pre-incubated at 37°C for 30 min). Data were processed by subtracting the absorbance in the absence of biotinylated LPS. Statistical significance was determined by the Student−Newman−Keuls multiple comparisons test. n.s, not significant; **, p < 0.01, relative to the value of the group solely treated with LPS.

[3] = system: E. coli ML35 (ATCC 43827); assay: virtual colony count assay, E. coli ML35; assay type: cell-based; conditions: for LD50 (Lethal Dose that kills 50% of bacteria) / LD90 (Lethal Dose that kills 90% of bacteria): ATCC 43827 E. coli ML35, 1 × 10^6 CFU/mL, 10 mM sodium phosphate buffer pH 7.4, 1% TSB, 37 °C, 1 h, duplicate, repeated three times
Experimental: Figure 3 Reduction attenuates the antibacterial activity of HD5OX against Gram-negative bacteria. […] Peptides were prepared in sterile water, with the final concentrations of 0.78, 1.56, 3.13, 6.25, 12.5, and 25 μg/mL. […] Zero survival points are not plotted.

[4] = Biolayer interferometry (BLI), binding to lipid A; conditions: for Kd / Koff (dissociation rate constant) / Kon (association rate constant): BLI, 1:1 fit
Experimental: The recruitment of peptides to lipid A (Sigma L5399) was determined using Forte Bio’s “Octet Red 96” BLI (Pall Life Sciences, US). The amine-reactive second-generation (AR2G) biosensor was activated using 20 mM 1-ethyl-3-[3-dimethylaminopropy] carbodiimide hydrochloride (EDC, Sigma E1769) and 10 mM sulfo-N-hydroxysulfosuccinimide (s-NHS, Sigma 56485). Lipid A was immobilized on biosensors at the concentration of 20 μg/mL until the binding curves reached the plateau. Ethanolamine (1 M, pH 8.5) was used to quench the immobilization. Peptides were prepared in the running buffer (5 mM sodium phosphate buffer, pH 7.4), with concentrations of 200, 400, 600, 800, 1000, and 1200 nM, respectively. Association and disassociation, 5 min for each, were carried out at a shaking speed of 600 rpm. Biosensors were regenerated by 0.1 M Glycine-HCl buffer (pH 2.0). […] The binding thicknesses were processed using Fortebio Data Analysis 7.0 software, in which the methods for y-axis alignment, inter-step correction, and Savitzky-Golay filtering were specified. The equilibrium dissociation constant (KD), calculated as the ratio of the dissociation rate constant (Koff) to the association rate constant (Kon), was generated by a 1:1 fitting model. This experiment was repeated three times.
^a The binding kinetics between peptides and bacterial lipid A were determined with a biolayer interferometry (BLI). Lipid A was immobilized on AR2G biosensors at the concentration of 20 μg/mL until the binding curves reached the plateau. Peptides were prepared in the running buffer (5 mM sodium phosphate buffer, pH 7.4), with concentrations of 200, 400, 600, 800, 1000, and 1200 nM, respectively. Association and disassociation, 5 min for each, were carried out at a shaking speed of 600 rpm. The bindings were processed using Fortebio Data Analysis 7.0 software, which specifies the methods for y-axis alignment, inter-step correction, reference subtraction, and Savitzky-Golay filtering. The experiment was repeated three times.
^b Kon, the association rate constant; Koff, the dissociation rate constant; KD, the equilibrium dissociation constant; R^2, the fitting correlation coefficient. These parameters were generated by a 1:1 fitting model. KD is calculated as the ratio of Koff to Kon. […]

[5] = system: E. coli ML35 cells; assay: Membrane depolarization, flow cytometry DiBAC4(3); conditions: 6.25 μg/mL; for DP (depolarized cells): 37 °C, 1 h, DiBAC4(3) flow cytometry, representative scatter plot
[6] = AR2G biosensor, 5 mM sodium phosphate buffer pH 7.4, 200-1200 nM, mean ± SD from three independent assays, read-out: KD (equilibrium dissociation constant) binding to lipid A
[7] = lipid A, repeat 1th, read-out: KD
[8] = lipid A, repeat 2th, read-out: KD
[9] = lipid A, repeat 3th, read-out: KD

SMILES | CD secondary structure in the presence of LPS [1] | CD secondary structure in SDS micelles [1] | effect on the interaction between LPS and LBP [2] | LD50 (Lethal Dose that kills 50% of bacteria) [3] [µg/mL] | LD90 (Lethal Dose that kills 90% of bacteria) [3] [µg/mL] | Kd [4, 6] [nM] | Koff (dissociation rate constant) ([4]; lipid A, repeat 1th) [s⁻¹] | Kon (association rate constant) ([4]; lipid A, repeat 1th) [M⁻¹ s⁻¹] | Kd [4, 7] [nM] | Koff (dissociation rate constant) ([4]; lipid A, repeat 2th) [s⁻¹] | Kon (association rate constant) ([4]; lipid A, repeat 2th) [M⁻¹ s⁻¹] | Kd [4, 8] [nM] | Koff (dissociation rate constant) ([4]; lipid A, repeat 3th) [s⁻¹] | Kon (association rate constant) ([4]; lipid A, repeat 3th) [M⁻¹ s⁻¹] | Kd [4, 9] [nM] | DP (depolarized cells) [5] [%] | other results
CC[C@H](C)[C@@H]1NC(=O)[C@H](CCC(=O)O)NC(=O)[C@@H]2CSSC[C@@H]3NC(=O)[C@H](Cc4ccc(O)cc4)NC(=O)[C@@H](NC(=O)[C@@H](NC(=O)[C@H](C)N)[C@@H](C)O)CSSC[C@@H](C(=O)N[C@@H](CCCNC(=N)N)C(=O)O)NC(=O)[C@H](CSSC[C@H](NC(=O)[C@H](CCCNC(=N)N)NC(=O)CNC(=O)[C@H]([C@@H](C)O)NC(=O)[C@H](CCCNC(=N)N)NC3=O)C(=O)N[C@@H](C)C(=O)N[C@@H]([C@@H](C)O)C(=O)N[C@@H](CCCNC(=N)N)C(=O)N[C@@H](CCC(=O)O)C(=O)N[C@@H](CO)C(=O)N[C@@H](CC(C)C)C(=O)N[C@@H](CO)C(=O)NCC(=O)N[C@@H](C(C)C)C(=O)N2)NC(=O)[C@H](CC(C)C)NC(=O)[C@H](CCCNC(=N)N)NC(=O)[C@H](Cc2ccc(O)cc2)NC(=O)[C@H](CC(C)C)NC(=O)[C@H](CCCNC(=N)N)NC(=O)CNC(=O)[C@H](CO)NC1=O [HD5OX, Oxidized human defensin 5] (H-ATCYCRTGRCATRESLSGVCEISGRLYRLCCR-OH; disulfide 3-31, 5-20, 10-30; N-terminus and C-terminus assumed) | slightly red-shifted | maintained the β-sheet structures | less effect on the interaction between LPS and LBP | 4.7 ± 0.8 | 11.6 ± 1.7 | 75 ± 24 | 0.000324 | 6320 | 51.3 | 0.000536 | 5410 | 99.1 | 0.000509 | 6830 | 74.5 | 31.8 | antibacterial action against E. coli ML35, relative ([3]; virtual colony count, 0.78-25 μg/mL, HD5OX vs HD5RED): more potent action against these bacteria than HD5RED
CC[C@H](C)[C@H](NC(=O)[C@H](CCC(=O)O)NC(=O)[C@H](CS)NC(=O)[C@@H](NC(=O)CNC(=O)[C@H](CO)NC(=O)[C@H](CC(C)C)NC(=O)[C@H](CO)NC(=O)[C@H](CCC(=O)O)NC(=O)[C@H](CCCNC(=N)N)NC(=O)[C@@H](NC(=O)[C@H](C)NC(=O)[C@H](CS)NC(=O)[C@H](CCCNC(=N)N)NC(=O)CNC(=O)[C@@H](NC(=O)[C@H](CCCNC(=N)N)NC(=O)[C@H](CS)NC(=O)[C@H](Cc1ccc(O)cc1)NC(=O)[C@H](CS)NC(=O)[C@@H](NC(=O)[C@H](C)N)[C@@H](C)O)[C@@H](C)O)[C@@H](C)O)C(C)C)C(=O)N[C@@H](CO)C(=O)NCC(=O)N[C@@H](CCCNC(=N)N)C(=O)N[C@@H](CC(C)C)C(=O)N[C@@H](Cc1ccc(O)cc1)C(=O)N[C@@H](CCCNC(=N)N)C(=O)N[C@@H](CC(C)C)C(=O)N[C@@H](CS)C(=O)N[C@@H](CS)C(=O)N[C@@H](CCCNC(=N)N)C(=O)O [HD5RED] (H-ATCYCRTGRCATRESLSGVCEISGRLYRLCCR-OH) | adopted a different conformation with two negative ellipticities at 217 nm and 206 nm | transformed into a peptide containing α-helical structures | significantly inhibited the LPS-LBP interaction | 9.9 ± 0.6 | 22.5 ± 2.3 | 140 ± 30 | 0.000389 | 2140 | 182 | 0.000337 | 2570 | 131 | 0.000264 | 2250 | 117 | 2.04 | CD secondary structure in aqueous ([1]; 100 μg/mL in sterile water, vs HD5OX): less effective in forming rigid β-sheet structures; LBP-blocking, dose dependence ([2]; 12.5, 25, and 50 μg/mL): dose-dependent LBP-blocking; fold of concentration needed to inactivate 90% relative to HD5OX ([3]; E. coli ML35 ATCC 43827, higher than HD5OX): 1.9 -fold; recruitment to lipid A ([4]; 1000 nM, 5 mM sodium phosphate buffer, HD5RED vs HD5OX): fewer HD5RED than HD5OX molecules were recruited to the lipid A; fold KD relative to HD5OX ([4]; lipid A, higher than HD5OX): 1.9 -fold; membrane depolarization, relative ([5]; HD5RED vs HD5OX, mean of three independent experiments): less efficiency of HD5RED in inducing membrane depolarization relative to HD5OX; also recorded: significantly lower than that of HD5OX
